From EP4631959A2, “NOVEL MINIGASTRIN-DERIVED CHOLECYSTOKININ 2 RECEPTOR BINDING MOLECULES FOR IMAGING AND TARGETED RADIOTHERAPY” (priority 2022, dated 2024)
Read-outs that look alike come from different tables or passages of the source. Starred links: 1 amine or outer side, 2 acyl side, 3 side chain; linkers in the order of their positions; H or OH if unused. Non-standard residues stand in square brackets, D forms with d. Residues, ends and D or L forms follow the SMILES beside them. *: point of attachment. DOTAGA = O=C(O)CN1CCN(CC(=O)O)CCN(C(CCC(=O)*)C(=O)O)CCN(CC(=O)O)CC1; X2 = O=C(O)CN1CCN(CC(=O)O)CCN([C@H](CCC(=O)*)C(=O)O)CCN(CC(=O)O)CC1; Benzoyl(4-SiFtBu2) = CC(C)(C)[Si](F)(c1ccc(C(=O)*)cc1)C(C)(C)C; d(γGlu) = O=C(O)[C@@H](CCC(=O)[*:2])N[*:1]; Nle = CCCC[C@H](N)C(=O)O; dDap = NC[C@@H](N)C(=O)O

Key:
[1] = target: T1, CCK-2R (Rattus norvegicus, UniProt P30553); experiment: Determination of IC50: CCK-2R affinity on AR4-2J cells, competition with [^177Lu]Lu-DOTA-PP-F11N; assay type: binding
T1 construct: The CCK-2R expressing rat pancreatic tumor cells AR4-2J; host or cells: AR4-2J rat pancreatic tumor cells
T1 sequence (P30553 1-452): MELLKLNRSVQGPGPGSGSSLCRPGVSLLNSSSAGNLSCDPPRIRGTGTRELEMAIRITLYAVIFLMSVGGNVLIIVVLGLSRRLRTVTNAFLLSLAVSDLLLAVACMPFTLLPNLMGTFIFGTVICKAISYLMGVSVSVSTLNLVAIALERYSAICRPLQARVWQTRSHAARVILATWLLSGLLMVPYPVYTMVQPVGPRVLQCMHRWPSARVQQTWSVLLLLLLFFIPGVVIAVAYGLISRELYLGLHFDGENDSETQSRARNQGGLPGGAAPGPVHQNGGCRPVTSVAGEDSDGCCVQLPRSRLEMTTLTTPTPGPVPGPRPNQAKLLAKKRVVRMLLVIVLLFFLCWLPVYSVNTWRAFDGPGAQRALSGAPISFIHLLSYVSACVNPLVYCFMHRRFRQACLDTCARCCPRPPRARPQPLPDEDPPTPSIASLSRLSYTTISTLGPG
In short: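 Competitive displacement of 0.3 pmol/well [177Lu]Lu-DOTA-PP-F11N by compounds (10^-10 to 10^-4 M) on AR4-2J cells in BSA-supplemented medium, 3 h at 37 °C. Free label was collected from medium plus PBS rinse, and cell-bound label was recovered with 1 M NaOH, both measured by γ-counter. Each IC50 was determined twice, in triplicate.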

[2] = n-Octanol-PBS distribution coefficient (logD7.4); assay type: physicochemical; conditions: pH = 7.4, ^177Lu-labeled
Procedure: Approximately 1 MBq of the labeled tracer was dissolved in 1 mL of a 1/1 mixture (v/v) of phosphate buffered saline (PBS, pH = 7.4) and n-octanol in an Eppendorf tube (1.5 mL). After vigorous mixing of the suspension for 3 min at rt, the vial was centrifuged at 9,000 rpm for 5 min (Biofuge 15, Heraeus Sepatech, Osterode, Germany) and 200 µL aliquots of both layers were measured in a γ-counter. The experiment was repeated at least five times.

[3] = read-out: IC50 [nM] (n = 3), ^natLu-labeled; AR4-2J cells; ^natLu-labeled
[4] = AR4-2J cells; ^natLu-labeled; read-out: IC50 [nM] (n = 3), ^natLu-labeled

Compound | IC50 [1, 3] [nM] | logD7.4 (n ≥ 5), ^177Lu-labeled [2] | IC50 [1, 4] [nM]
CCCC[C@H](NC(=O)[C@H](Cc1c[nH]c2ccccc12)NC(=O)CNC(=O)[C@H](Cc1ccc(O)cc1)NC(=O)[C@H](C)NC(=O)[C@@H](CCC(=O)O)NC(=O)[C@@H](CCC(=O)O)NC(=O)[C@@H](CCC(=O)O)NC(=O)[C@@H](CCC(=O)O)NC(=O)[C@@H](CCC(=O)O)NC(=O)[C@@H](CCC(=O)O)NC(=O)[C@@H](CNC(=O)c1ccc([Si](F)(C(C)(C)C)C(C)(C)C)cc1)NC(=O)CCC(C(=O)O)N1CCN(CC(=O)O)CCN(CC(=O)O)CCN(CC(=O)O)CC1)C(=O)N[C@@H](CC(=O)O)C(=O)N[C@@H](Cc1ccccc1)C(N)=O (some centres unmarked) [DOTAGA-MG-SiFA-11, DOTAGA-dap(SiFA)-F11N] ({DOTAGA}-[dDap](Benzoyl(4-SiFtBu2))[dE][dE][dE][dE][dE][dE]AYGW[Nle]DF-NH2) | 75.7 ± 10.7 | −2.63 ± 0.08 | –
CCCC[C@H](NC(=O)[C@H](Cc1c[nH]c2ccccc12)NC(=O)CNC(=O)[C@H](Cc1ccc(O)cc1)NC(=O)[C@H](C)NC(=O)[C@@H](CNC(=O)c1ccc([Si](F)(C(C)(C)C)C(C)(C)C)cc1)NC(=O)CC[C@@H](NC(=O)CC[C@@H](NC(=O)CC[C@@H](NC(=O)CC[C@@H](NC(=O)CC[C@@H](NC(=O)CC[C@@H](NC(=O)CC[C@H](C(=O)O)N1CCN(CC(=O)O)CCN(CC(=O)O)CCN(CC(=O)O)CC1)C(=O)O)C(=O)O)C(=O)O)C(=O)O)C(=O)O)C(=O)O)C(=O)N[C@@H](CC(=O)O)C(=O)N[C@@H](Cc1ccccc1)C(N)=O [DOTAGA-MG-SiFA-13, DOTAGA-γ-glu-[dap(SiFA)^6]γ-F11N] ({X2-d(γGlu)-d(γGlu)-d(γGlu)-d(γGlu)-d(γGlu)-d(γGlu)}-[dDap](Benzoyl(4-SiFtBu2))AYGW[Nle]DF-NH2) | – | −2.15 ± 0.08 | 863 ± 147
CCCC[C@H](NC(=O)[C@H](Cc1c[nH]c2ccccc12)NC(=O)CNC(=O)[C@H](Cc1ccc(O)cc1)NC(=O)[C@H](C)NC(=O)CC[C@@H](NC(=O)[C@@H](CNC(=O)c1ccc([Si](F)(C(C)(C)C)C(C)(C)C)cc1)NC(=O)CC[C@@H](NC(=O)CC[C@@H](NC(=O)CC[C@@H](NC(=O)CC[C@@H](NC(=O)CC[C@@H](NC(=O)CC[C@H](C(=O)O)N1CCN(CC(=O)O)CCN(CC(=O)O)CCN(CC(=O)O)CC1)C(=O)O)C(=O)O)C(=O)O)C(=O)O)C(=O)O)C(=O)O)C(=O)N[C@@H](CC(=O)O)C(=O)N[C@@H](Cc1ccccc1)C(N)=O [DOTAGA-MG-SiFA-14, DOTAGA-γ-glu-[dap(SiFA)^5]γ-F11N] ({X2-d(γGlu)-d(γGlu)-d(γGlu)-d(γGlu)-d(γGlu)}-[dDap](Benzoyl(4-SiFtBu2))[d(γGlu)]AYGW[Nle]DF-NH2) | – | −2.23 ± 0.07 | 111 ± 13
CCCC[C@H](NC(=O)[C@H](Cc1c[nH]c2ccccc12)NC(=O)CNC(=O)[C@H](Cc1ccc(O)cc1)NC(=O)[C@H](C)NC(=O)CC[C@@H](NC(=O)CC[C@@H](NC(=O)[C@@H](CNC(=O)c1ccc([Si](F)(C(C)(C)C)C(C)(C)C)cc1)NC(=O)CC[C@@H](NC(=O)CC[C@@H](NC(=O)CC[C@@H](NC(=O)CC[C@@H](NC(=O)CC[C@H](C(=O)O)N1CCN(CC(=O)O)CCN(CC(=O)O)CCN(CC(=O)O)CC1)C(=O)O)C(=O)O)C(=O)O)C(=O)O)C(=O)O)C(=O)O)C(=O)N[C@@H](CC(=O)O)C(=O)N[C@@H](Cc1ccccc1)C(N)=O [DOTAGA-MG-SiFA-15, DOTAGA-γ-glu-[dap(SiFA)^4]γ-F11N] ({X2-d(γGlu)-d(γGlu)-d(γGlu)-d(γGlu)}-[dDap](Benzoyl(4-SiFtBu2))[d(γGlu)][d(γGlu)]AYGW[Nle]DF-NH2) | – | −2.34 ± 0.05 | 89.7 ± 14.5
CCCC[C@H](NC(=O)[C@H](Cc1c[nH]c2ccccc12)NC(=O)CNC(=O)[C@H](Cc1ccc(O)cc1)NC(=O)[C@H](C)NC(=O)CC[C@@H](NC(=O)CC[C@@H](NC(=O)CC[C@@H](NC(=O)[C@@H](CNC(=O)c1ccc([Si](F)(C(C)(C)C)C(C)(C)C)cc1)NC(=O)CC[C@@H](NC(=O)CC[C@@H](NC(=O)CC[C@@H](NC(=O)CC[C@H](C(=O)O)N1CCN(CC(=O)O)CCN(CC(=O)O)CCN(CC(=O)O)CC1)C(=O)O)C(=O)O)C(=O)O)C(=O)O)C(=O)O)C(=O)O)C(=O)N[C@@H](CC(=O)O)C(=O)N[C@@H](Cc1ccccc1)C(N)=O [DOTAGA-MG-SiFA-16, DOTAGA-γ-glu-[dap(SiFA)^3]γ-F11N] ({X2-d(γGlu)-d(γGlu)-d(γGlu)}-[dDap](Benzoyl(4-SiFtBu2))[d(γGlu)][d(γGlu)][d(γGlu)]AYGW[Nle]DF-NH2) | – | −2.57 ± 0.06 | 68.5 ± 11.4
CCCC[C@H](NC(=O)[C@H](Cc1c[nH]c2ccccc12)NC(=O)CNC(=O)[C@H](Cc1ccc(O)cc1)NC(=O)[C@H](C)NC(=O)CC[C@@H](NC(=O)CC[C@@H](NC(=O)CC[C@@H](NC(=O)CC[C@@H](NC(=O)[C@@H](CNC(=O)c1ccc([Si](F)(C(C)(C)C)C(C)(C)C)cc1)NC(=O)CC[C@@H](NC(=O)CC[C@@H](NC(=O)CCC(C(=O)O)N1CCN(CC(=O)O)CCN(CC(=O)O)CCN(CC(=O)O)CC1)C(=O)O)C(=O)O)C(=O)O)C(=O)O)C(=O)O)C(=O)O)C(=O)N[C@@H](CC(=O)O)C(=O)N[C@@H](Cc1ccccc1)C(N)=O (some centres unmarked) [DOTAGA-MG-SiFA-17, DOTAGA-γ-glu-[dap(SiFA)^2]γ-F11N] ({DOTAGA-d(γGlu)-d(γGlu)}-[dDap](Benzoyl(4-SiFtBu2))[d(γGlu)][d(γGlu)][d(γGlu)][d(γGlu)]AYGW[Nle]DF-NH2) | 51.3 ± 9.3 | −2.26 ± 0.05 | –
CCCC[C@H](NC(=O)[C@H](Cc1c[nH]c2ccccc12)NC(=O)CNC(=O)[C@H](Cc1ccc(O)cc1)NC(=O)[C@H](C)NC(=O)CC[C@@H](NC(=O)CC[C@@H](NC(=O)CC[C@@H](NC(=O)CC[C@@H](NC(=O)CC[C@@H](NC(=O)[C@@H](CNC(=O)c1ccc([Si](F)(C(C)(C)C)C(C)(C)C)cc1)NC(=O)CC[C@@H](NC(=O)CCC(C(=O)O)N1CCN(CC(=O)O)CCN(CC(=O)O)CCN(CC(=O)O)CC1)C(=O)O)C(=O)O)C(=O)O)C(=O)O)C(=O)O)C(=O)O)C(=O)N[C@@H](CC(=O)O)C(=O)N[C@@H](Cc1ccccc1)C(N)=O (some centres unmarked) [DOTAGA-MG-SiFA-18, DOTAGA-γ-glu-[dap(SiFA)^1]γ-F11N] ({DOTAGA-d(γGlu)}-[dDap](Benzoyl(4-SiFtBu2))[d(γGlu)][d(γGlu)][d(γGlu)][d(γGlu)][d(γGlu)]AYGW[Nle]DF-NH2) | 33 ± 11.1 | −2.50 ± 0.02 | –
CCCC[C@H](NC(=O)[C@H](Cc1c[nH]c2ccccc12)NC(=O)CNC(=O)[C@H](Cc1ccc(O)cc1)NC(=O)[C@H](C)NC(=O)[C@@H](CCC(=O)O)NC(=O)[C@@H](CCC(=O)O)NC(=O)[C@@H](CCC(=O)O)NC(=O)[C@@H](CCC(=O)O)NC(=O)[C@@H](CCC(=O)O)NC(=O)[C@@H](CCC(=O)O)NC(=O)[C@@H](CCC(=O)O)NC(=O)[C@@H](CNC(=O)c1ccc([Si](F)(C(C)(C)C)C(C)(C)C)cc1)NC(=O)CCC(C(=O)O)N1CCN(CC(=O)O)CCN(CC(=O)O)CCN(CC(=O)O)CC1)C(=O)N[C@@H](CC(=O)O)C(=O)N[C@@H](Cc1ccccc1)C(N)=O (some centres unmarked) [DOTAGA-MG-SiFA-20, DOTAGA-dap(SiFA)-glu-F11N] ({DOTAGA}-[dDap](Benzoyl(4-SiFtBu2))[dE][dE][dE][dE][dE][dE][dE]AYGW[Nle]DF-NH2) | 58 ± 11 | −2.19 ± 0.08 | –
CCCC[C@H](NC(=O)[C@H](Cc1c[nH]c2ccccc12)NC(=O)CNC(=O)[C@H](Cc1ccc(O)cc1)NC(=O)[C@H](C)NC(=O)[C@@H](CCC(=O)O)NC(=O)[C@@H](CCC(=O)O)NC(=O)[C@@H](CCC(=O)O)NC(=O)[C@@H](CCC(=O)O)NC(=O)[C@@H](CCC(=O)O)NC(=O)[C@@H](CCC(=O)O)NC(=O)[C@@H](CCC(=O)O)NC(=O)[C@@H](CCC(=O)O)NC(=O)[C@@H](CNC(=O)c1ccc([Si](F)(C(C)(C)C)C(C)(C)C)cc1)NC(=O)CCC(C(=O)O)N1CCN(CC(=O)O)CCN(CC(=O)O)CCN(CC(=O)O)CC1)C(=O)N[C@@H](CC(=O)O)C(=O)N[C@@H](Cc1ccccc1)C(N)=O (some centres unmarked) [DOTAGA-MG-SiFA-21, DOTAGA-dap(SiFA)-(glu)2-F11N] ({DOTAGA}-[dDap](Benzoyl(4-SiFtBu2))[dE][dE][dE][dE][dE][dE][dE][dE]AYGW[Nle]DF-NH2) | 55.3 ± 7.8 | −2.84 ± 0.04 | –
CCCC[C@H](NC(=O)[C@H](Cc1c[nH]c2ccccc12)NC(=O)CNC(=O)[C@H](Cc1ccc(O)cc1)NC(=O)[C@H](C)NC(=O)CC[C@@H](NC(=O)CC[C@@H](NC(=O)CC[C@@H](NC(=O)CC[C@@H](NC(=O)CC[C@@H](NC(=O)CC[C@@H](NC(=O)CC[C@@H](NC(=O)[C@@H](CNC(=O)c1ccc([Si](F)(C(C)(C)C)C(C)(C)C)cc1)NC(=O)CCC(C(=O)O)N1CCN(CC(=O)O)CCN(CC(=O)O)CCN(CC(=O)O)CC1)C(=O)O)C(=O)O)C(=O)O)C(=O)O)C(=O)O)C(=O)O)C(=O)O)C(=O)N[C@@H](CC(=O)O)C(=O)N[C@@H](Cc1ccccc1)C(N)=O (some centres unmarked) [DOTAGA-MG-SiFA-22, DOTAGA-dap(SiFA)-γ-glu-γ-F11N] | 29.5 ± 1.9 | −2.16 ± 0.09 | –
